Laboratory results reported in patent publication US5455356A, “Fungicidal 1-aryl-1-[α-(triazolyl)alkyl]-1-silacycloalkanes and their preparation methods” (priority 1993, dated 1995).
Where two headings read alike, the source gives them in different places.

Key:
Format in all cases: cell-based
Rhizoctonia solani = assay: In vitro mycelial/spore growth on potato-sucrose-agar, percent disease control (RS, first column); details: read-out: % controlled, RS
Procedure: (§1) The compounds of this invention were dissolved respectively in acetone in an amount equal to 10% of the final volume and then in purified water at the concentration of 100 ppm and 50 ppm.
(§2) Each of the solution was mixed with potato-sucrose-agar medium in 6" petri dish and one of the fungi was spotted at the center of the dish. The dish was incubated in growth room for several days. The percent disease control was derived from the radii of spore growth. The screening tests in vitro condition are well-known to those skilled in the art.
(§3) The following fungi were used for the screening.
7) Rhi. so.; Rhizoctonia solani

GC = assay: In vitro mycelial/spore growth on potato-sucrose-agar, percent disease control (GC); details: read-out: % controlled, GC; for inhibition of growth at 50 ppm: GC
Procedure: as §1, §2, §3

Botritis cinerea = assay: In vitro mycelial/spore growth on potato-sucrose-agar, percent disease control (BC); details: read-out: % controlled, BC
Procedure: as §1, §2, §3
10) Bo. ci.; Botritis cinerea

Rhizopus sp. = assay: In vitro mycelial/spore growth on potato-sucrose-agar, percent disease control (RS, second column); details: read-out: % controlled, RS
Procedure: as §1, §2, §3
9) Rhi. sp.; Rhizopus sp.

Botryosphaeri = assay: In vitro mycelial/spore growth on potato-sucrose-agar, percent disease control (BD); details: read-out: % controlled, BD
Procedure: as §1, §2, §3
4) Bo. do (Ma); Botryosphaeri

Phytophthora capsisi = assay: In vitro mycelial/spore growth on potato-sucrose-agar, percent disease control (PC); details: read-out: % controlled, PC
Procedure: as §1, §2, §3
2) Phy. ca.; Phytophthora capsisi

Pyricalaria oryzae = assay: In vitro mycelial/spore growth on potato-sucrose-agar, percent disease control (PO); details: read-out: % controlled, PO
Procedure: as §1, §2, §3
6) Py. or.; Pyricalaria oryzae

Fusarium moniliforme = assay: In vitro mycelial/spore growth on potato-sucrose-agar, percent disease control (FM); details: Fusarium verticillioides, read-out: % controlled, FM
Procedure: as §1, §2, §3
8) Fu. mo.; Fusarium moniliforme

| Compound | inhibition of growth at 50 ppm (Rhizoctonia solani) [%] | inhibition of growth at 200 ppm (Rhizoctonia solani) [%] | inhibition of growth at 50 ppm (GC) [%] | inhibition of growth at 200 ppm (GC) [%] | inhibition of growth at 50 ppm (Botritis cinerea) [%] | inhibition of growth at 200 ppm (Botritis cinerea) [%] | inhibition of growth at 50 ppm (Rhizopus sp.; Rhizopus) [%] | inhibition of growth at 200 ppm (Rhizopus sp.; Rhizopus) [%] | inhibition of growth at 50 ppm (Botryosphaeri) [%] | inhibition of growth at 200 ppm (Botryosphaeri) [%] | inhibition of growth at 50 ppm (Phytophthora capsisi) [%] | inhibition of growth at 200 ppm (Phytophthora capsisi) [%] | inhibition of growth at 50 ppm (Pyricalaria oryzae) [%] | inhibition of growth at 200 ppm (Pyricalaria oryzae) [%] | inhibition of growth at 50 ppm (Fusarium moniliforme) [%] | inhibition of growth at 200 ppm (Fusarium moniliforme; Fusarium moniliforme) [%] | inhibition of growth at 50 ppm (Rhizopus sp.; 50 ppm, Rhizopus sp.) [%] | inhibition of growth at 50 ppm (Fusarium moniliforme; 50 ppm, Fusarium moniliforme) [%] |
| --- | --- | --- | --- | --- | --- | --- | --- | --- | --- | --- | --- | --- | --- | --- | --- | --- | --- | --- |
| Fc1ccc([Si]2(Cn3cncn3)CCCC2)cc1 [1-(4-fluorophenyl)-1-(1H-1,2,4-triazole-1-yl)methyl-1-silacyclopentane] | 95 | 100 | 100 | 100 | 100 | 100 | 75 | 83 | 100 | 100 | 80 | 100 | 100 | 100 | 10 | 100 | – | – |
| CC(n1cncn1)[Si]1(c2ccc(F)cc2)CCCC1 (stereo not drawn) [1-(4-fluorophenyl)-1-[α-(1H-1,2,4-triazole-1-yl)ethyl]-1-silacyclopentane] | 100 | 100 | 100 | 100 | 100 | 100 | – | 75 | 100 | 100 | 45 | 100 | 100 | 100 | – | 100 | 59 | 94 |
| COc1ccc([Si]2(Cn3cncn3)CCCCC2)cc1 [1-(4-methoxyphenyl)-1-(1H-1,2,4-triazole-1-yl)methyl-1-silacyclohexane] | 96 | 100 | 100 | 100 | 69 | 89 | – | 79 | 85 | 100 | 49 | 93 | 100 | 100 | – | 92 | 65 | 81 |
| Clc1ccc([Si]2(Cn3cncn3)CCCCC2)cc1 [1-(4-chlorophenyl)-1-(1H-1,2,4-triazole-1-yl)methyl-1-silacyclohexane] | 57 | 69 | 100 | 100 | 100 | 100 | – | 92 | 100 | 100 | 90 | 100 | 100 | 100 | – | 100 | 50 | 100 |
| CC(n1cncn1)[Si]1(c2ccc(-c3ccccc3)cc2)CCCCC1 (stereo not drawn) [1-(4-biphenyl)-1-[α-(1H-1,2,4-triazole-1-yl)ethyl]-1-silacyclohexane] | 100 | 100 | 100 | 100 | 100 | 100 | – | 89 | 100 | 100 | 92 | 100 | 100 | 100 | – | 100 | 79 | 100 |
| c1ccc(-c2ccc([Si]3(Cn4cncn4)CCCC3)cc2)cc1 [1-(4-biphenyl)-1-(1H-1,2,4-triazole-1-yl)methyl-1-silacyclopentane] | 89 | 93 | 100 | 100 | 15 | 30 | – | 72 | 72 | 72 | 68 | 100 | 100 | 100 | – | 100 | 69 | 47 |
